According to ChEMBL document CHEMBL6078646, “Target Ligand Separation and Identification of Isoforsythiaside as a Histone Lysine-Specific Demethylase 1 Covalent Inhibitor Against Breast Cancer Metastasis” (J Med Chem, 2024):
The source made the active and inactive calls. The rule behind the calls is not given here.

How the values were obtained:
[1] = Tmax in male Sprague-Dawley rat at 10 mg/kg, ip measured at 0 to 1440 mins by LC-MS/MS analysis; assay type: ADME, organism-based; settings: in vivo, time 0-1440 min
MDA-MB-231 [2] = test: Inhibition of cell invasion in LSD1 knockout human MDA-MB-231 cells at 16 uM incubated for 24 hrs by phase contract microscopy based transwell assay; assay type: functional
[3] = Retention time of the compound by HPLC-MS/MS analysis; assay type: physicochemical
[4] = biological target: T1, Lysine-specific histone demethylase 1A (Homo sapiens, UniProt O60341); test: Stabilization of LSD1 in human MDA-MB-231 cells incubated for 24 hrs in presence of cycloheximide by Western blotting analysis; assay type: cell-based
MCF7 = test: Cytotoxicity against human MCF7 cells assessed as cell viability at 0 to 100 uM incubated for 24 hrs by MTT assay; assay type: functional; settings: dose 0-100 µM
[5] = biological target: T1, Lysine-specific histone demethylase 1A; test: Non-competitive inhibition of LSD1 (unknown origin) using H3K4me2 as substrate by Lineweaver-Burk plot analysis
MDA-MB-231 [6] = test: Inhibition of cell invasion in human MDA-MB-231 cells assessed as reduction in number of invasive cells at 4 to 32 uM incubated for 24 hrs by phase contrast microscopy Transwell assay; assay type: functional, cell-based; settings: dose 4-32 µM
MDA-MB-231 [7] = test: Effect on H3K4me2 protein expression in LSD1 knockout human MDA-MB-231 cells at 16 uM by Western blot analysis; assay type: functional, cell-based
MDA-MB-231 [8] = test: Antimetastatic activity against human MDA-MB-231 cells expressing luciferase xenografted in female Balb/c nude mouse assessed as reduction in fluorescence intensity in lungs at 25 mg/kg, ip administered every 3 days and measured on day 15 by bioluminescence imaging analysis relative to control; assay type: functional; set-up: scale not given: the % may be the effect or the level left; settings: time 15 day
MDA-MB-231 [9] = test: Inhibition of Twist1 production in human MDA-MB-231 cells by Western blotting analysis; assay type: functional, cell-based

With `C[C@@H]1O[C@H](OC[C@H]2O[C@@H](OCCc3ccc(O)c(O)c3)[C@H](O)[C@@H](OC(=O)/C=C/c3ccc(O)c(O)c3)[C@@H]2O)[C@H](O)[C@H](O)[C@H]1O` as the compound, how does the Tmax [1] read?
Its Tmax is 1.33 h.

What about the inhibition (MDA-MB-231 [2]) of the same compound?
Its inhibition is “Active; No Significant Difference With Lsd1 Knockout Control Group”.

And the Retention_time [3]?
The Retention_time was 18.4 min.

What about the Activity [4] of the same compound?
Its Activity is “Active”.

What about the Activity (MCF7) of the same compound?
The Activity was >90%.

And the inhibition [5]?
The inhibition was “Active”.

And the inhibition (MDA-MB-231 [6])?
The inhibition was “Active”.

What about the Activity (MDA-MB-231 [7]) of the same compound?
Its Activity is “inactive”.

What about the Activity (MDA-MB-231 [8]) of the same compound?
Its Activity is 46.4%.

And the inhibition (MDA-MB-231 [9])?
The inhibition was “Dose-dependent-effect”.
